Assay results published in patent US20150056702A1, “METHOD AND KIT FOR CULTURING STEM CELLS” (China Medical University, priority 2013, published 2015).

What was measured:
Oct4 = experiment: Real-time PCR, Oct4 gene expression in ES cells; assay type: cell-based, mouse; settings: for Oct4 gene expression level: ES cells, control group = 100%
Experimental: The following steps were conducted in order to culture ES cells: • (1) preparing a stem cell medium: DMEM+15% heat-inactivated FBS+NEAA (0.1 mM)+L-glutamine (2 mM)+β-mercaptoethanol (0.2 mM); • (2) preparing a BP-containing solution: dissolving BP into DMSO to form a BP-containing solution (100 mg/ml), and storing the solution at −20° C.; • (3) adding different amounts of the BP-containing solution in step (2) into the stem cell medium in step (1) to form different BP-containing mediums, wherein the amount of BP were about 5, 10, 20 or 40 μg per milliliter of the stem cell medium respectively (i.e. the experimental group mediums: BP5, BP10, BP20 and BP40); and • (4) using the BP-containing medium of in step (3) to culture a ES cell (retrieved from the embryos in the blastula stage of 129sv/J mice) at 37° C., 5% CO2 and 95% humidity on the feeder cells provided by Example 1.
An experimental group medium (BP5, BP10, BP20 or BP40) and a control group medium (without BP) were added respectively to perform the following steps. ES cells were cultured with an initial density of 1×10^4 per well in a 6-well culture dish. The medium was removed until the cells growth to be about 70 to 80% confluence, and then 1 ml TRIzol (Invitrogen) was added into each well. The cells were incubated for 5 minutes, and then was scraped by a spatula and placed into a 1.5 ml microtube to be lysed adequately. Chloroform (0.2 ml) was added into the microtubes. The mixture was shaken up and down for 15 seconds, and then incubated at room temperature for 2 to 3 minutes. Thereafter, the mixture was centrifuged at 12000 rpm at 4° C. for 15 minutes, and the supernatant was removed into another 1.5 ml microtube and isopropanol (0.5 ml) was added into the microtube with well mixing. The mixture was incubated at room temperature for 10 minutes and then centrifuged at 12000 rpm at 4° C. for 10 minutes. The supernatant was then removed. One ml of 70% ethanol containing DEPC.H2O was used to wash the remaining sediment. The sediment was centrifuged at 7500 rpm at 4° C. for 5 minutes. The supernatant was removed. The sediment was dried by vacuum suction. The dried samples were dissolved in about 0.01 to 0.02 ml of DEPC.H2O to obtain the experimental group RNA and control group RNA. Both groups were stored at −80° C.
The OD value of RNA samples in both groups obtained from the above Experiment I were measured at a wavelength of 260 nm (RNA: OD260=1 for a 40 μg/mL solution). Each RNA sample (2 μl) was added with RNA-free water until the volume of the sample reached 10 μl. Two μl oligo (dT) (100 μg/ml) was added into each sample, and the samples were incubated at 65° C. for 5 minutes. Then, the samples were immediately placed on ice and spun down. Next, 6.5 μl of a reaction solution [4 μl of 5× buffer+1 μl of 0.1 M DTT+1 μl of RNase out+0.5 μl of SSIII (Invitrogen)] was added into each of the samples, and the samples were incubated at 50° C. for about 30 to 60 minutes and at 75° C. for 15 minutes to obtain the experimental group cDNA and control group cDNA. Both groups were stored at −80° C.
This experiment was used to detect the expression levels of ES cell-related genes, i.e., Oct4 and Sox2, etc. […] The cycle threshold (CT) values were measured.

Jak2 = experiment: Western blot assay, Jak2 protein in ES cells; assay type: cell-based, mouse; settings: for Jak2 Protein expression level: ES cells, control group = 100%
Source text: According to the known research at present, Jak2 and Stat3 proteins could be phosphorylated to form the active forms, and the Jak2-Stat3 signaling pathway will be activated when Jak2 and Stat3 were phosphorylated.
An experimental group medium (BP5 or BP10), a LIF-containing medium (without BP), and a control group medium (without BP) were used respectively to culture ES cells with an initial density of 1×10^4 per well in a 6-well culture dish. The medium was removed until the cells growth to be about 70 to 80% confluence. The proteins were extracted to conduct the Western blot assay by using rabbit anti-Jak2 antibody (Cell Signaling Technology), mouse anti-phospho-Jak2 antibody (Cell Signaling Technology), rabbit anti-Stat3 antibody (BD) and rabbit anti-phospho-Stat3 antibody (Cell Signaling Technology), to determine whether BP would affect the protein expression levels of the genes in the Jak-Stat3 signaling pathway.

[1] = BP10 medium (about 10 μg BP/ml)

**Q.** What does the source list for `CCCC=C1OC(=O)c2ccccc21` [BP, n-butylidenephthalide]?
**A.** Oct4 gene expression level (Oct4; BP5 medium (about 5 μg BP/ml)): 119%; Oct4 gene expression level (Oct4; [1]): 419%; Oct4 gene expression level (Oct4; BP20 medium (about 20 μg BP/ml)): 258%; Oct4 gene expression level (Oct4; BP40 medium (about 40 μg BP/ml)): 144%; gene expression level of Oct4 (Oct4; BP-containing ES cell culture medium vs control group, result in words): significantly up-regulated; Jak2 Protein expression level (Jak2; BP5 medium (about 5 μg BP/ml)): 109%; Jak2 Protein expression level (Jak2; [1]): 134%; total protein expression and phosphorylated protein expression level of Jak2 (Jak2; ES cell medium containing BP, result in words): increased significantly

**Q.** With “LIF: multifunctional cell factor used to maintain pluripotency of stem cells; LIF-containing medium (4 ng/ml, without BP) as comparison” as the compound, how does the “Jak2 Protein expression level” value (Jak2; LIF-containing medium (LIF 4 ng/ml, without BP)) read?
**A.** 62%
